Results taken from PubChem BioAssay AID1195 (EPA DSSTox, 2008).

Test system: human maximum recommended daily dose, FDA database
Assay: DSSTox (FDAMDD) FDA Maximum (Recommended) Daily Dose Database
Conditions: active compounds read low
Outline: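 MRDD values come from clinical trials with daily oral dosing, usually for 3–12 months, for the average adult, in mg/day converted to mg/kg-bw/day assuming 60 kg. Antineoplastic mg/m2 doses are divided by 37. Activity score maps log10(1/MRDD mmol) onto 1–100.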

[1] = TherapeuticCategory: antineoplastic
[2] = TherapeuticCategory: antibacterial
[3] = TherapeuticCategory: sedative, hypnotic
[4] = TherapeuticCategory: antihistaminic
[5] = TherapeuticCategory: anticonvulsant
[6] = TherapeuticCategory: anthelmintic
[7] = TherapeuticCategory: antihypertensive
[8] = TherapeuticCategory: skeletal muscle relaxant
[9] = TherapeuticCategory: antiasthmatic
[10] = TherapeuticCategory: narcotic analgesic

CN(C)C(=O)Oc1ccc[n+](C)c1
maximum recommended daily dose (mmol/kg-bw/day) (TherapeuticCategory: cholinergic): 0.0766

S=P(N1CC1)(N1CC1)N1CC1
maximum recommended daily dose (mmol/kg-bw/day) [1]: 0.00211

NC(=O)c1cnccn1
maximum recommended daily dose (mmol/kg-bw/day) [2]: 0.244

CCC1(CC)C(=O)NCC(C)C1=O (stereo unspecified)
maximum recommended daily dose (mmol/kg-bw/day) [3]: 0.0364

COc1cc(Cc2cnc(N)nc2N)cc(OC)c1OC
maximum recommended daily dose (mmol/kg-bw/day) [2]: 0.0184

N=c1ccn2c(n1)O[C@H]1[C@H](O)[C@@H](CO)O[C@H]12
maximum recommended daily dose (mmol/kg-bw/day) [1]: 0.0888

CN1CCC[C@@H]1CCO[C@](C)(c1ccccc1)c1ccc(Cl)cc1
maximum recommended daily dose (mmol/kg-bw/day) [4]: 0.00039

COc1cc(OC)c(C(=O)CCCN2CCCC2)c(OC)c1
maximum recommended daily dose (mmol/kg-bw/day) (TherapeuticCategory: peripheral vasodilator): 0.0325

NC(=O)OCC(COC(N)=O)c1ccccc1
maximum recommended daily dose (mmol/kg-bw/day) [5]: 0.252

CO[C@H]1C[C@H](O[C@H]2[C@H](C)O[C@@H](O[C@@H]3/C(C)=C/C[C@@H]4C[C@@H](C[C@]5(CC[C@H](C)[C@@H](C(C)C)O5)O4)OC(=O)[C@@H]4C=C(C)[C@@H](O)[C@H]5OC/C(=C\C=C\[C@@H]3C)[C@]54O)C[C@@H]2OC)O[C@@H](C)[C@@H]1O
maximum recommended daily dose (mmol/kg-bw/day) [6]: 0.000174

O=C(OCCN1CCCCC1)C(O)(c1ccccc1)c1ccccc1
maximum recommended daily dose (mmol/kg-bw/day) (TherapeuticCategory: anticholinergic, antispasmodic): 0.00392

CO[C@@H]1[C@@H](O[C@@H]2O[C@H](C)[C@@H](O[C@H]3C[C@@](C)(O)[C@@H](O)[C@H](C)O3)[C@H](N(C)C)[C@H]2O)[C@@H](CC=O)C[C@@H](C)[C@@H](O[C@@H]2CC[C@H](N(C)C)[C@@H](C)O2)/C=C/C=C/C[C@@H](C)OC(=O)C[C@H]1OC(C)=O
maximum recommended daily dose (mmol/kg-bw/day) [2]: 0.0754

N[C@@H](Cc1cc(I)c(Oc2cc(I)c(O)c(I)c2)c(I)c1)C(=O)O
maximum recommended daily dose (mmol/kg-bw/day) (TherapeuticCategory: hyperthyroidism): 1.07e-05

CCC(=O)O[C@@H]1CC(=O)O[C@H](C)C/C=C/C=C/[C@H](O[C@@H]2CC[C@H](N(C)C)[C@@H](C)O2)[C@H](C)C[C@H](CC=O)[C@H](O[C@@H]2O[C@H](C)[C@@H](O[C@H]3C[C@@](C)(O)[C@@H](O)[C@H](C)O3)[C@H](N(C)C)[C@H]2O)[C@H]1OC
maximum recommended daily dose (mmol/kg-bw/day) [2]: 0.0742

CN1C(=O)CC(c2ccccc2)C1=O (stereo unspecified)
maximum recommended daily dose (mmol/kg-bw/day) [5]: 0.264

O=C(Cn1c(=O)sc2ccc(Cl)cc21)N1CCN(CCO)CC1
maximum recommended daily dose (mmol/kg-bw/day) (TherapeuticCategory: antiasthmatic, anti inflammatry): 0.0141

CCCCNc1ccc(C(=O)OCCOCCOCCOCCOCCOCCOCCOCCOCCOC)cc1
maximum recommended daily dose (mmol/kg-bw/day) (TherapeuticCategory: antitussive): 0.0166

NCCc1cnc[nH]1
maximum recommended daily dose (mmol/kg-bw/day) (TherapeuticCategory: gastrointestinal): 0.00013

CCC(C)n1ncn(-c2ccc(N3CCN(c4ccc(OC[C@H]5CO[C@](Cn6cncn6)(c6ccc(Cl)cc6Cl)O5)cc4)CC3)cc2)c1=O (stereo partly specified)
maximum recommended daily dose (mmol/kg-bw/day) (TherapeuticCategory: antifungal): 0.0142

CCC(=O)OC(OP(=O)(CCCCc1ccccc1)CC(=O)N1C[C@H](C2CCCCC2)C[C@H]1C(=O)O)C(C)C (stereo partly specified)
maximum recommended daily dose (mmol/kg-bw/day) [7]: 0.00236

COc1ccc(C2C(=O)c3ccccc3C2=O)cc1
maximum recommended daily dose (mmol/kg-bw/day) (TherapeuticCategory: anticoagulant): 0.0198

CC(=O)Nc1c(I)cc(I)c(C(=O)O)c1I
maximum recommended daily dose (mmol/kg-bw/day) (TherapeuticCategory: diagnostic aid): 0.18

CC12C=CC(C(=O)O[C@H]3CC[C@H]4[C@@H]5CCC6=CC(=O)CC[C@@H]6[C@H]5CC[C@]34C)(CC1)CC2
maximum recommended daily dose (mmol/kg-bw/day) (TherapeuticCategory: anabolic): 0.00788

Cc1onc(-c2c(F)cccc2Cl)c1C(=O)N[C@@H]1C(=O)N2[C@@H]1SC(C)(C)[C@@H]2C(=O)O
maximum recommended daily dose (mmol/kg-bw/day) [2]: 0.147

CN(C)CCC(c1ccc(Cl)cc1)c1ccccn1 (stereo unspecified)
maximum recommended daily dose (mmol/kg-bw/day) [4]: 0.000484

CCc1nn(CCCN2CCN(c3cccc(Cl)c3)CC2)c(=O)n1CCOc1ccccc1
maximum recommended daily dose (mmol/kg-bw/day) (TherapeuticCategory: antidepressant, seratonin receptor antagonist): 0.0213

CCC(OC(C)=O)C(CC(C)N(C)C)(c1ccccc1)c1ccccc1 (stereo unspecified)
maximum recommended daily dose (mmol/kg-bw/day) (TherapeuticCategory: none): 0.00659

COc1cc2c3cc1Oc1cc(ccc1O)C[C@@H]1c4c(cc(OC)c(O)c4Oc4ccc(cc4)C[C@@H]3N(C)CC2)CC[N+]1(C)C
maximum recommended daily dose (mmol/kg-bw/day) (TherapeuticCategory: skeletal muscle relaxant, diagnostic aid): 0.000979

Cc1cc(C)cc(OCC2CNC(=O)O2)c1 (stereo unspecified)
maximum recommended daily dose (mmol/kg-bw/day) [8]: 0.484

COC(=O)[C@H]1[C@H]2C[C@@H]3c4[nH]c5cc(OC)ccc5c4CCN3C[C@H]2C[C@@H](OC(=O)c2cc(OC)c(OC)c(OC)c2)[C@@H]1OC
maximum recommended daily dose (mmol/kg-bw/day) [7]: 1.64e-05

O=S(O)CNc1ccc(S(=O)(=O)c2ccc(NCS(=O)O)cc2)cc1
maximum recommended daily dose (mmol/kg-bw/day) [2]: 0.0111

O[C@@H]([C@H](O)[C@@H](O)CBr)[C@@H](O)CBr
maximum recommended daily dose (mmol/kg-bw/day) [1]: 0.0135

CN1CCN(C(c2ccccc2)c2ccccc2)CC1
maximum recommended daily dose (mmol/kg-bw/day) (TherapeuticCategory: antiemetic): 0.0125

COC(=O)Nc1nc2ccc(C(=O)c3ccc(F)cc3)cc2[nH]1
maximum recommended daily dose (mmol/kg-bw/day) [6]: 0.00533

O=S(=O)(O)CCS
maximum recommended daily dose (mmol/kg-bw/day) (TherapeuticCategory: mucolytic, uroprotective): 0.0281

CC[N+]1(C)[C@@H]2CC(OC(=O)[C@H](CO)c3ccccc3)C[C@H]1[C@@H]1O[C@@H]12 (stereo partly specified)
maximum recommended daily dose (mmol/kg-bw/day) (TherapeuticCategory: bronchodilator): 2.43e-05

CCCCCCCC/C=C\CCCCCCCC(=O)O
maximum recommended daily dose (mmol/kg-bw/day) (TherapeuticCategory: sclerosing agent): 0.242

CC1=C(/C=C/C(C)=C/C=C/C(C)=C/C=C/C=C(C)/C=C/C=C(C)/C=C/C2=C(C)CCCC2(C)C)C(C)(C)CCC1
maximum recommended daily dose (mmol/kg-bw/day) (TherapeuticCategory: vitamin A precursor, UV screen): 9.31e-05

C=CCN1CC[C@]23CCCC[C@H]2[C@H]1Cc1ccc(O)cc13
maximum recommended daily dose (mmol/kg-bw/day) (TherapeuticCategory: narcotic antagonist): 0.000235

COc1cnc(NS(=O)(=O)c2ccc(N)cc2)nc1
maximum recommended daily dose (mmol/kg-bw/day) [2]: 0.0892

CCN1CCN(C(=O)N[C@@H](C(=O)N[C@@H]2C(=O)N3C(C(=O)O)=C(CSc4nnnn4C)CS[C@H]23)c2ccc(O)cc2)C(=O)C1=O
maximum recommended daily dose (mmol/kg-bw/day) [2]: 0.31

NS(=O)(=O)c1cc2c(cc1Cl)NCNS2(=O)=O
maximum recommended daily dose (mmol/kg-bw/day) (TherapeuticCategory: diuretic): 0.0112

O=C(O)CCCc1ccc(N(CCCl)CCCl)cc1
maximum recommended daily dose (mmol/kg-bw/day) [1]: 0.000657

CC[C@@H](C(N)=O)N1CCCC1=O
maximum recommended daily dose (mmol/kg-bw/day) [5]: 0.353

NS(=O)(=O)c1cc(C(=O)O)c(NCc2ccco2)cc1Cl
maximum recommended daily dose (mmol/kg-bw/day) (TherapeuticCategory: diuretic, antihypertensive): 0.0302

CC(C1=C(CCN(C)C)Cc2ccccc21)c1ccccn1 (stereo unspecified)
maximum recommended daily dose (mmol/kg-bw/day) [4]: 0.000342

OC[C@@H](O)[C@H]1O[C@@H]2O[C@H](C(Cl)(Cl)Cl)O[C@@H]2[C@H]1O
maximum recommended daily dose (mmol/kg-bw/day) [3]: 0.0269

COc1cccc([C@@]2(O)CCCC[C@@H]2CN(C)C)c1
maximum recommended daily dose (mmol/kg-bw/day) (TherapeuticCategory: analgesic): 0.0253

NC[C@H]1O[C@H](O[C@H]2[C@H](O)[C@@H](O[C@H]3O[C@H](CO)[C@@H](O)[C@H](N)[C@H]3O)[C@H](N)C[C@@H]2N)[C@H](O)[C@@H](O)[C@@H]1O
maximum recommended daily dose (mmol/kg-bw/day) [2]: 0.031

COc1ccc2[nH]cc(CCNC(C)=O)c2c1
maximum recommended daily dose (mmol/kg-bw/day) (TherapeuticCategory: antioxidant): 0.000359

Cc1ccccc1OCC(O)CO (stereo unspecified)
maximum recommended daily dose (mmol/kg-bw/day) [8]: 0.274

CN1CCC(=C2c3ccccc3CC(=O)c3sccc32)CC1
maximum recommended daily dose (mmol/kg-bw/day) [9]: 0.000108

COc1ccc(C[C@@H](C)NC[C@H](O)c2ccc(O)c(NC=O)c2)cc1
maximum recommended daily dose (mmol/kg-bw/day) [9]: 0.00775

C[C@@H]1C/C=C/C=C/C=C/C=C/[C@H](O[C@@H]2O[C@H](C)[C@@H](O)[C@H](N)[C@@H]2O)C[C@@H]2O[C@](O)(C[C@@H](O)C[C@H]3O[C@@H]3/C=C/C(=O)O1)C[C@H](O)[C@H]2C(=O)O
maximum recommended daily dose (mmol/kg-bw/day) [2]: 0.000413

CC[C@]1(O)C[C@H]2CN(CCc3c([nH]c4ccccc34)[C@@](C(=O)OC)(c3cc4c(cc3OC)N(C)[C@H]3[C@@](O)(C(N)=O)[C@H](O)[C@]5(CC)C=CCN6CC[C@]43[C@@H]65)C2)C1
maximum recommended daily dose (mmol/kg-bw/day) [1]: 0.000143

CC1(C)[C@H](C(=O)O)N2C(=O)C[C@H]2S1(=O)=O
maximum recommended daily dose (mmol/kg-bw/day) (TherapeuticCategory: combination to form antibacterial): 0.286

C[C@@]12CCCCC[C@@H](Cc3ccc(O)cc31)[C@@H]2N
maximum recommended daily dose (mmol/kg-bw/day) [10]: 0.000681

Cc1onc(-c2ccccc2Cl)c1C(=O)N[C@@H]1C(=O)N2[C@@H]1SC(C)(C)[C@@H]2C(=O)O
maximum recommended daily dose (mmol/kg-bw/day) [2]: 0.0764

Cn1c(=O)c2c(ncn2C)n(C)c1=O
maximum recommended daily dose (mmol/kg-bw/day) (TherapeuticCategory: CNS stimulant): 0.0515

O=C1C[C@@H]2OCC=C3CN4CC[C@]56c7ccccc7N1[C@H]5[C@H]2[C@H]3C[C@H]46
maximum recommended daily dose (mmol/kg-bw/day) (TherapeuticCategory: rat poison): 0.00209

C[C@@H](N)[C@@H](O)c1ccccc1
maximum recommended daily dose (mmol/kg-bw/day) (TherapeuticCategory: decongestant, anorexic): 0.0198

N[C@@H](C(=O)N[C@@H]1C(=O)N2C(C(=O)O)=C(Cl)CS[C@H]12)c1ccccc1
maximum recommended daily dose (mmol/kg-bw/day) [2]: 0.068

CC(C)NCC(O)COc1ccc(CC(N)=O)cc1 (stereo unspecified)
maximum recommended daily dose (mmol/kg-bw/day) (TherapeuticCategory: antihypertensive, antianginal, antiarrhythmic): 0.0125

C=CC1=C(C(=O)O)N2C(=O)[C@@H](NC(=O)/C(=N\OCC(=O)O)c3csc(N)n3)[C@H]2SC1
maximum recommended daily dose (mmol/kg-bw/day) [2]: 0.0293

C#C[C@]1(O)CC[C@H]2[C@@H]3CCc4cc(O)ccc4[C@H]3CC[C@@]21C
maximum recommended daily dose (mmol/kg-bw/day) (TherapeuticCategory: estrogen): 1.69e-06

c1ccc(CC2=NCCN2)cc1
maximum recommended daily dose (mmol/kg-bw/day) (TherapeuticCategory: antiadrenergic): 0.0125

O=P(O)(O)C(O)(Cc1cccnc1)P(=O)(O)O
maximum recommended daily dose (mmol/kg-bw/day) (TherapeuticCategory: antiosteoporotic, Ca regulator, Ca channel blocker): 0.000294

CC(COc1ccccc1)NC(C)C(O)c1ccc(O)cc1 (stereo unspecified)
maximum recommended daily dose (mmol/kg-bw/day) (TherapeuticCategory: vasodilator): 0.00441

CCC1(c2ccccc2)C(=O)NCNC1=O
maximum recommended daily dose (mmol/kg-bw/day) [5]: 0.0382

CN1CC[C@]23c4c5ccc(O)c4O[C@H]2[C@@H](O)C=C[C@H]3[C@H]1C5
maximum recommended daily dose (mmol/kg-bw/day) [10]: 0.00585

CN(C)CC/C=C1\c2ccccc2COc2ccc(CC(=O)O)cc21
maximum recommended daily dose (mmol/kg-bw/day) (TherapeuticCategory: antihistaminic, antiallergic): 0.000987
